According to US20240246960A1 (adMare Therapeutics Society, priority 2021, published 2024):
pEC50: −log10 of the molar value. Read-outs that look alike come from different tables or passages of the source.

Tests used:
[1] = biological target: T1, pDNA-PK ser2056 induction in HCT116 spheroids (Homo sapiens, UniProt P78527); experiment: Multicellular tumour spheroid + radiation, pDNA-PK inhibition, HCT116; type: cell-based; conditions: 20 Gy
T1 construct: endogenous in cells; host or cells: HCT116 multicellular tumour spheroids
Procedure, shortened: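 HCT116 spheroids (~0.5 mm) in MEM/10% FBS/10 mM glucose, 20% O2, 37 °C, pre-incubated 1 h with compound (10 or 5 μM down to 3.5 nM), irradiated 20 Gy, incubated 2 h more. Cryosections immunostained for pDNA-PK ser2056; EC50 (μM) for 50% reduction of radiation-induced pDNA-PK.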

HCT116 spheroids = experiment: Spheroid + radiation colony forming cell survival assay (SF), HCT116; type: cell-based; conditions: 8 Gy
Protocol: (§1) Multicellular tumour spheroids determination of compound inhibition of pDNA-PK induction following radiation. Tumour spheroids were grown to approximately 0.5 mm in diameter and irradiated with 20 Gy in combination with inhibitor test compounds to determine their potency. Inhibitor concentration for 50% reduction in pDNA-PK induction (IC50) was determined via immunohistochemical staining in spheroid cryosections taken 2 hours following radiation. For cell survival endpoint 8 Gy radiation was used and 3 hours following radiation spheroids were dissociated, counted and plated for colony forming endpoint.
Spheroid+radiation colony forming cell survival assay (SF). Radiation 8 Gy. Drug: serial dilution 5 μM down to 10 nM (12 wells×2 repeat). Spheroids: 5-10 spheroids per well ([…]). HCT116. 5% O2 and 5% CO2. 96 well pate format for assay. Protocol: pre incubate 1 hour with drug, irradiate 8 Gy, post incubate 3 hrs with drug, dissociate spheroids and count cells and plate for colony forming assay. Endpoint: wait 4-7 days and count colonies. Analysis: determine EC50 concentration that increase cell kill by 50% over radiation alone.
(§2) Multicellular tumour spheroids were used to determine potency of test compounds in a 3D tissue environment using inhibition of pDNA-PK induction following radiation or cell survival as the endpoint. For the pDNA-PK endpoint HCT116 or FaDU tumour spheroids were grown to approximately 0.5 mm in diameter and irradiated with 20 Gy in combination with inhibitor test compounds to determine their potency. Experiments were carried out in 96 well plates containing 0.7 mls of MEM media containing 10% FBS and 10 mM glucose under 20% O2 & 5% CO2 at 37° C. Following dilution of compounds 1:1000 from DMSO stocks, compounds were serially diluted from 10 μM down to 3.5 nM and 5-10 spheroids added. 96 well plates were constantly stirred to avoid spheroids settling during the course of the experiment. The inhibitor concentration for 50% reduction in pDNA-PK induction (EC50) was determined via immunohistochemical staining in spheroid cryosections taken 2 hours following radiation using anti-pDNA-PK (ser 2056) and fixed immediately in formalin following sectioning. For cell survival endpoint 8 Gy radiation was used and, 3 hours following radiation, spheroids were dissociated, counted and plated for colony forming endpoint. Data presented in the table compound potency as EC50 [μM].

[2] = Microsomal stability assay, mouse liver microsomes; conditions: for microsomal CLint at 0.1 uM: male, CD-1, mouse, liver microsomes, pH 7.4, Microsomal Stability Mouse Clint, 0.1 mg/mL microsomes, 0.1 uM compound
[3] = biological target: T2, pDNA-PK ser2056 induction in FaDU spheroids (Homo sapiens, UniProt P78527); experiment: Multicellular tumour spheroid + radiation, pDNA-PK inhibition, FaDU; type: cell-based; conditions: 20 Gy
T2 construct: host or cells: FaDu
Protocol: as §1
Spheroid+radiation pDNA-PK. Radiation: 20 Gy. Drug: serial dilution 5 or 10 μM down to 3.5 nM (11 wells). Spheroids: 3-6 spheroids per well (300-500 μm diameter). 20% O2 and 5% CO2. 96 well plate format. Endpoint: fluorescent immunostain pDNA-PK ser2056 and image on microscope. Analysis: determine EC50 concentrations that decreases pDNA-PK induction […] after irradiation.
as §2

[4] = Hepatocyte stability assay, human hepatocytes; type: in vitro ADME; conditions: for hepatocyte CLint at 1 uM: both sexes, human, cryopreserved hepatocytes, pH 7.3, 0.7 million cells per mL, 1 uM compound
Procedure, shortened: (§3)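 Pooled cryopreserved hepatocytes (male CD-1 mouse, or mixed-gender human donors; ≥10 each) at 0.7 million viable cells/mL in Krebs-Henseleit buffer pH 7.3, with 1 uM compound (≤0.01% DMSO). Incubated up to 2 h at 37 °C/5% CO2, quenched with acetonitrile; parent compound followed by HPLC-MS/MS peak area.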

[5] = Hepatocyte stability assay, mouse hepatocytes; type: in vitro ADME; conditions: for hepatocyte CLint at 1 uM: male, CD-1, mouse, cryopreserved hepatocytes, pH 7.3, 0.7 million cells per mL, 1 uM compound
Procedure, shortened: as §3

[6] = Example 7, spheroid, cell line HCT115 [sic], 20% O2, read-out: EC50 (pDNA-PK inhibition, immunohistochemical endpoint)
[7] = Example 8, spheroid, read-out: Cell line: HCT116 Immunohistochemical endpoint pDNA-PK inhibition EC50
[8] = Example 9 Study 2, 20% O2, read-out: Spheroid Cell line: HCT116 Immunohistochemical endpoint pDNA-PK inhibition EC50
[9] = Example 8, spheroid, read-out: Cell line: HCT116 Colony forming endpoint Surviving Fraction EC50
[10] = Example 9 Study 2, read-out: Spheroid Cell line: HCT116 Colony forming endpoint Surviving Fraction EC50
[11] = Example 8, spheroid, read-out: Cell line: FaDU Immunohistochemical endpoint pDNA-PK inhibition EC50
[12] = Example 9 Study 2, 20% O2, read-out: Spheroid Cell line: FaDU Immunohistochemical endpoint pDNA-PK inhibition EC50

Compound	pEC50 [1, 6]	pEC50 [1, 7]	pEC50 [1, 8]	pEC50 (HCT116 spheroids; [9])	pEC50 (HCT116 spheroids; [10])	Microsomal Stability (mouse) % rem. 60 min [2]	microsomal CLint at 0.1 uM [2]	pEC50 [3, 11]	pEC50 [3, 12]	Hepatocyte Stability (human) % rem. 120 min [4]	hepatocyte CLint at 1 uM [4]	Hepatocyte Stability (mouse) % rem. 120 min [5]	hepatocyte CLint at 1 uM [5]
O=C(N[C@H]1CC[C@@H](Oc2nc(N3CCOCC3)cc3ncccc23)CC1)c1ccc(C(F)(F)F)o1 [Compound 133, N-((1s,4s)-4-((7-Morpholino-1,6-naphthyridin-5-yl)oxy)cyclohexyl)-5-(trifluoromethyl)furan-2-carboxamide]	5.00 to 6.00	5.00 to 6.00	5.00 to 6.00	5.00 to 6.00	5.00 to 6.00	E (% remaining = 0-25%)	> 116 µL/min/mg	–	–	–	–	–	–
Oc1cnc2cc(N3CCOCC3)nc(O[C@H]3CC[C@@H](Nc4ncccn4)CC3)c2c1 [Compound 19a, 7-Morpholino-5-(((1s,4s)-4-(pyrimidin-2-ylamino)cyclohexyl)oxy)-1,6-naphthyridin-3-ol]	6.00 to 6.30	6.00 to 6.30	6.00 to 6.30	6.00 to 6.30	6.00 to 6.30	F (% remaining = 25-50%)	> 116 µL/min/mg	6.00 to 6.30	6.00 to 6.30	–	–	–	–
O=C(N[C@H]1CC[C@@H](Oc2nc(N3CCOCC3)cc3ncccc23)CC1)c1cc[nH]c1 [Compound 140, N-((1s,4s)-4-((7-morpholino-1,6-naphthyridin-5-yl)oxy)cyclohexyl)-1H-pyrrole-3-carboxamide]	6.30 to 8.00	–	6.30 to 8.00	–	–	G (% remaining = 50-75%)	< 116 µL/min/mg	–	–	H (% remaining = 75-100%)	< 8.2 µL/min/1e6 cells	G (% remaining = 50-75%)	< 8.2 µL/min/1e6 cells
O=C(N[C@H]1CC[C@@H](Oc2nc(N3CCOCC3)cc3ncccc23)CC1)c1ccco1 [Compound 132, N-((1s,4s)-4-((7-Morpholino-1,6-naphthyridin-5-yl)oxy)cyclohexyl)furan-2-carboxamide]	6.30 to 8.00	6.30 to 8.00	6.30 to 8.00	6.30 to 8.00	6.30 to 8.00	E (% remaining = 0-25%)	> 116 µL/min/mg	6.30 to 8.00	6.30 to 8.00	–	–	–	–
CS(=O)(=O)Nc1cnc2cc(N3CCOCC3)nc(O[C@H]3CC[C@@H](Nc4ncccn4)CC3)c2c1 [Compound 185, N-(7-morpholino-5-(((1s,4s)-4-(pyrimidin-2-ylamino)cyclohexyl)oxy)-1,6-naphthyridin-3-yl)methanesulfonamide]	6.30 to 8.00	–	6.30 to 8.00	–	–	G (% remaining = 50-75%)	< 116 µL/min/mg	–	–	H (% remaining = 75-100%)	< 8.2 µL/min/1e6 cells	G (% remaining = 50-75%)	< 8.2 µL/min/1e6 cells
Cc1nc(C(F)(F)F)cn1[C@H]1CC[C@@H](Oc2nc(N3CCOCC3)cc3ncccc23)CC1 [Compound 17i, 4-(5-(((1s,4s)-4-(2-methyl-4-(trifluoromethyl)-1H-imidazol-1-yl)cyclohexyl)oxy)-1,6-naphthyridin-7-yl)morpholine]	5.00 to 6.00	5.00 to 6.00	5.00 to 6.00	6.30 to 8.00	6.30 to 8.00	–	–	6.00 to 6.30	6.00 to 6.30	–	–	–	–
CCOCCOc1cnc(N[C@H]2CC[C@@H](Oc3nc(N4CCOCC4)cc4ncc(O)cc34)CC2)nc1 [Compound 19b, 5-(((1s,4s)-4-((5-(2-Ethoxyethoxy)pyrimidin-2-yl)amino)cyclohexyl)oxy)-7-morpholino-1,6-naphthyridin-3-ol]	6.30 to 8.00	6.30 to 8.00	6.30 to 8.00	6.30 to 8.00	6.30 to 8.00	–	–	6.00 to 6.30	6.00 to 6.30	–	–	–	–
